Experimental data published in US7659404B2, “Broad spectrum 2-(substituted-amino)-benzothiazole sulfonamide HIV protease inhibitors” (Tibotec Pharmaceuticals Ltd., priority 2001, dated 2010).

Tests used:
[1] = test system: wild type virus (IIIB); experiment: HIV-AVE-MT4-MTT cellular assay, wild type virus (IIIB); type: cell-based; settings: MT4 cells, MTT; for EC50: Human immunodeficiency virus 1, IIIB, MT4, wild type virus (IIIB), read-out: HIV-AVE-MT4-MTT-IIIB-2-002 pEC50 (converted); for HIV-AVE-MT4-MTT-IIIB-2-002 pEC50: wild type virus (IIIB)
Protocol: (§1) HIV- or mock-infected MT4 cells were incubated for five days in the presence of various concentrations of the inhibitor. At the end of the incubation period, all HIV-infected cells have been killed by the replicating virus in the control cultures in the absence of any inhibitor. Cell viability is measured by measuring the concentration of MTT, a yellow, water soluble tetrazolium dye that is converted to a purple, water insoluble formazan in the mitochondria of living cells only. Upon solubilization of the resulting formazan crystals with isopropanol, the absorbance of the solution is monitored at 540 nm. The values correlate directly to the number of living cells remaining in the culture at the completion of the five day incubation. The inhibitory activity of the compound was monitored on the virus-infected cells and was expressed as EC50 and EC90. These values represent the amount of the compound required to protect 50% and 90%, respectively, of the cells from the cytopathogenic effect of the virus. The toxicity of the compound was measured on the mock-infected cells and was expressed as CC50, which represents the concentration of compound required to inhibit the growth of the cells by 50%. The selectivity index (SI) (ratio CC50/EC50) is an indication of the selectivity of the anti-HIV activity of the inhibitor.

[2] = test system: virus strain F (R13025); experiment: microbe, parasite or virus in culture; type: cell-based, HIV; settings: for EC50: Human immunodeficiency virus 1, MT4, read-out: HIV-AVE-MT4-MTT-R13025-2-002 pEC50, virus strain F (R13025), MT4 cells, MTT (converted); for HIV-AVE-MT4-MTT-R13025-2-002 pEC50: virus strain F (R13025), MT4 cells
Protocol: as §1, with “At the end of the incubation period, all HIV-infected cells have been killed by the replicating virus in the control cultures in the absence of any inhibitor.” left out
(§2) Because of the increasing emergence of drug resistant HIV strains, the present compounds were tested for their potency against clinically isolated HIV strains harboring several mutations.
(§3) As a measure of the broad spectrum activity of the present compounds, the fold resistance (FR) defined as FR=EC50(mutant strain)/EC50(HIV-1 strain LAI).

[3] = test system: virus strain S (R13080); experiment: microbe, parasite or virus in culture; type: cell-based, HIV; settings: for EC50: Human immunodeficiency virus 1, MT4, read-out: HIV-AVE-MT4-MTT-R13080-2-002 pEC50, virus strain S (R13080), MT4 cells, MTT (converted); for HIV-AVE-MT4-MTT-R13080-2-002 pEC50: virus strain S (R13080), MT4 cells
Protocol: as §1, with “At the end of the incubation period, all HIV-infected cells have been killed by the replicating virus in the control cultures in the absence of any inhibitor.” left out
as §2, §3

| SMILES | EC50 [1] [nM] | EC50 [2] [nM] | EC50 [3] [nM] | also measured |
| --- | --- | --- | --- | --- |
| Cc1cccc(C)c1OCC(=O)N[C@@H](Cc1ccccc1)[C@H](O)CN(CC(C)C)S(=O)(=O)c1ccc2nc(NC(=O)c3ccncc3)sc2c1 [Compound 125] | 6.31 | 26.9 | 145 | – |
| CC(C)CN(C[C@@H](O)[C@H](Cc1ccccc1)NC(=O)OCc1cncs1)S(=O)(=O)c1ccc2nc(NC(=O)c3cc(ON)cc(ON)c3)sc2c1 [Compound 162] | 20.4 | 46.8 | 158 | – |
| CC(C)CN(C[C@@H](O)[C@H](Cc1ccccc1)NC(=O)OC(C)(C)C)S(=O)(=O)c1ccc2nc(N(C)CCN3CCCC3)sc2c1 [Compound 123] | 1580 | – | – | – |
| CC(C)CN(C[C@@H](O)[C@H](Cc1ccccc1)NC(=O)O[C@H]1CO[C@H]2OCC[C@H]21)S(=O)(=O)c1ccc2nc(N3CCNC3=O)sc2c1 [Compound 106] | 11 | 55 | 219 | – |
| CC(C)CN(C[C@@H](O)[C@H](Cc1ccccc1)NC(=O)OCc1cncs1)S(=O)(=O)c1ccc2nc(N(C)C(=O)CN(C)CCCN3CCCC3)sc2c1 [Compound 175] | – | – | – | HIV-AVE-MT4-MTT-IIIB-2-002 pEC50 [1]: 7.3; HIV-AVE-MT4-MTT-R13025-2-002 pEC50 [2]: 6.03; HIV-AVE-MT4-MTT-R13080-2-002 pEC50 [3]: 5.5 |
| Cc1cccc(C)c1OCC(=O)N[C@@H](Cc1ccccc1)[C@H](O)CN(CC(C)C)S(=O)(=O)c1ccc2nc(NC(=O)c3ccccn3)sc2c1 [Compound 112] | – | – | 151 | HIV-AVE-MT4-MTT-IIIB-2-002 pEC50 [1]: 8; HIV-AVE-MT4-MTT-R13025-2-002 pEC50 [2]: 6.91 |
| Cc1cccc(C)c1OCC(=O)N[C@@H](Cc1ccccc1)[C@H](O)CN(CC(C)C)S(=O)(=O)c1ccc2nc(N(C)CCCN(C)C)sc2c1 [Compound 109] | 2090 | 4170 | – | – |
| CC(C)CN(C[C@@H](O)[C@H](Cc1ccccc1)NC(=O)O[C@H]1CO[C@H]2OCC[C@H]21)S(=O)(=O)c1ccc2nc(N(C)CCN3CCCC3)sc2c1 [Compound 110] | 8.13 | 676 | 1550 | – |
| CC(C)CN(C[C@@H](O)[C@H](Cc1ccccc1)NC(=O)O[C@H]1CO[C@H]2OCC[C@H]21)S(=O)(=O)c1ccc2nc(NCCN)sc2c1 [Compound 185] | 45.7 | 33.1 | 34.7 | – |
| CC(C)CN(C[C@@H](O)[C@H](Cc1ccccc1)NC(=O)OCc1cncs1)S(=O)(=O)c1ccc2nc(N(C)C(=O)c3cc(ON)cc(ON)c3)sc2c1 [Compound 152] | 33.1 | 562 | 1740 | – |
| CC(C)CN(C[C@@H](O)[C@H](Cc1ccccc1)NC(=O)OCc1cncs1)S(=O)(=O)c1ccc2nc(N(C)C(=O)c3cccnc3)sc2c1 [Compound 153] | 7.41 | 45.7 | 339 | – |
| Cc1cccc(C)c1OCC(=O)N[C@@H](Cc1ccccc1)[C@H](O)CN(CC(C)C)S(=O)(=O)c1ccc2nc(NC(=O)c3cccnc3)sc2c1 [Compound 111] | 24.5 | 234 | 661 | – |
| CC(C)CN(C[C@@H](O)[C@H](Cc1ccccc1)NC(=O)O[C@H]1CO[C@H]2OCC[C@H]21)S(=O)(=O)c1ccc2nc(NC(=O)c3cncs3)sc2c1 [Compound 177] | 37.2 | 7.59 | 49 | – |
| CNCCNc1nc2ccc(S(=O)(=O)N(CC(C)C)C[C@@H](O)[C@H](Cc3ccccc3)NC(=O)OCc3cncs3)cc2s1 [Compound 150] | 42.7 | 162 | 661 | – |
| CC(C)CN(C[C@@H](O)[C@H](Cc1ccccc1)NC(=O)OC(C)(C)C)S(=O)(=O)c1ccc2nc(NCc3ccccn3)sc2c1 [Compound 118] | 302 | – | – | – |
| CC(C)CN(C[C@@H](C)[C@H](Cc1ccccc1)NC(=O)OCc1cncs1)S(=O)(=O)c1ccc2nc(N(C)C(=O)c3ccncc3)sc2c1 [Compound 182] | 4.79 | 36.3 | 170 | – |
| CC(C)CN(C[C@@H](O)[C@H](Cc1ccccc1)NC(=O)O[C@H]1CO[C@H]2OCC[C@H]21)S(=O)(=O)c1ccc2nc(N(C)CCCN(C)C)sc2c1 [Compound 141] | – | – | – | HIV-AVE-MT4-MTT-IIIB-2-002 pEC50 [1]: 7.83; HIV-AVE-MT4-MTT-R13025-2-002 pEC50 [2]: 6.49; HIV-AVE-MT4-MTT-R13080-2-002 pEC50 [3]: 6.02 |
| CC(C)CN(C[C@@H](O)[C@H](Cc1ccccc1)NC(=O)OCc1cncs1)S(=O)(=O)c1ccc2nc(NCCN(C)C(=O)OC(C)(C)C)sc2c1 [Compound 149] | 51.3 | – | – | – |

| SMILES | EC50 [1] [nM] | EC50 [2] [nM] | EC50 [3] [nM] | also measured |
| --- | --- | --- | --- | --- |
| Cc1cccc(C)c1OCC(=O)N[C@@H](Cc1ccccc1)[C@H](O)CN(CC(C)C)S(=O)(=O)c1ccc2nc(NCc3ccccn3)sc2c1 [Compound 129] | 63.1 | – | – | – |
| CC(C)CN(C[C@@H](O)[C@H](Cc1ccccc1)NC(=O)[C@@H](NC(=O)CNCc1cccc(F)c1)C(C)(C)C)S(=O)(=O)c1ccc2nc(NCCN3CCCC3)sc2c1.O=C(O)C(F)(F)F.O=C(O)C(F)(F)F [Compound 85, N′-[(3-fluorophenyl)methyl]glycyl-N-[(1S,2R)-2-hydroxy-3-[(2-methylpropyl)[[2-[2-(pyrrolidin-1-yl)ethylamino]benzothiazol-6-yl]sulfonyl]amino]-1-(phenylmethyl)propyl]-3-methyl-L-Valinamide, bis-trifluoroacetate] | – | – | – | HIV-AVE-MT4-MTT-IIIB-2-002 pEC50 [1]: 7.24 |
| CC(C)CN(C[C@@H](O)[C@H](Cc1ccccc1)NC(=O)OC(C)(C)C)S(=O)(=O)c1ccc2nc(NCCc3ccccn3)sc2c1 [Compound 120] | 316 | – | – | – |
| Cc1cccc(C)c1OCC(=O)N[C@@H](Cc1ccccc1)[C@H](O)CN(CC(C)C)S(=O)(=O)c1ccc2nc(N(C)CCCN3CCCC3)sc2c1 [Compound 138] | 1450 | – | – | – |
| CC(C)CN(C[C@@H](O)[C@H](Cc1ccccc1)NC(=O)OC(C)(C)C)S(=O)(=O)c1ccc2nc(N(C)CCCN3CCCC3)sc2c1 [Compound 124] | 2000 | – | – | – |
| CC(C)CN(C[C@@H](O)[C@H](Cc1ccccc1)NC(=O)OC(C)(C)C)S(=O)(=O)c1ccc2nc(NCc3ccccn3)sc2c1 [Compound 119] | – | – | – | HIV-AVE-MT4-MTT-IIIB-2-002 pEC50 [1]: 6.48 |
| CC(=O)Nc1nc2ccc(S(=O)(=O)N(CC(C)C)C[C@@H](O)[C@H](Cc3ccccc3)NC(=O)COc3c(C)cc([N+](=O)[O-])cc3C)cc2s1 [Compound 104] | 66.1 | – | – | – |
| CC(C)CN(C[C@@H](O)[C@H](Cc1ccccc1)NC(=O)OC(C)(C)C)S(=O)(=O)c1ccc2nc(N3CCC[C@@H]3C(=O)O)sc2c1 [Compound 142] | 5620 | – | – | – |
| Cc1cccc(C)c1OCC(=O)N[C@@H](Cc1ccccc1)[C@@H](CN(CC(C)C)S(=O)(=O)c1ccc2nc(NC(=O)c3ccccc3)sc2c1)OC(=O)c1ccncc1 [Compound 147] | 339 | – | – | – |
| CC(C)CN(C[C@@H](O)[C@H](Cc1ccccc1)NC(=O)O[C@@H]1COC2OCCNC21)S(=O)(=O)c1ccc2nc(NCCN3CCCC3)sc2c1 (stereo partly drawn) [Compound 101] | 240 | – | – | – |
| Cc1cccc(C)c1OCC(=O)N[C@@H](Cc1ccccc1)[C@H](O)CN(CC(C)C)S(=O)(=O)c1ccc2nc(NC(=O)c3ccccn3)sc2c1 [Compound 140] | – | – | – | HIV-AVE-MT4-MTT-IIIB-2-002 pEC50 [1]: 8.34; HIV-AVE-MT4-MTT-R13025-2-002 pEC50 [2]: 8.12 |
| Cc1cccc(C)c1OCC(=O)N[C@@H](Cc1ccccc1)[C@H](O)CN(CC(C)C)S(=O)(=O)c1ccc2nc(NCc3cccnc3)sc2c1 [Compound 130] | 58.9 | – | – | – |
| Cc1cccc(C)c1OCC(=O)N[C@@H](Cc1ccccc1)[C@H](O)CN(CC(C)C)S(=O)(=O)c1ccc2nc(N3CCOCC3)sc2c1 [Compound 136] | 724 | – | – | – |
| COC(=O)CCNc1nc2ccc(S(=O)(=O)N(CC(C)C)C[C@@H](O)[C@H](Cc3ccccc3)NC(=O)COc3c(C)cccc3C)cc2s1 [Compound 135] | 66.1 | – | – | – |
| Cc1cccc(C)c1OCC(=O)N[C@@H](Cc1ccccc1)[C@H](O)CN(CC(C)C)S(=O)(=O)c1ccc2nc(N(C)CCN3CCOCC3)sc2c1 [Compound 137] | 1700 | – | – | – |
| CC(C)CN(C[C@@H](O)[C@H](Cc1ccccc1)NC(=O)OC(C)(C)C)S(=O)(=O)c1ccc2nc(N3CCOCC3)sc2c1 [Compound 122] | 1200 | – | – | – |
| Cc1cccc(C)c1OCC(=O)N[C@@H](Cc1ccccc1)[C@H](O)CN(CC(C)C)S(=O)(=O)c1ccc2nc(NCC3CCCO3)sc2c1 (stereo partly drawn) [Compound 134] | 61.7 | – | – | – |
| Cc1cccc(C)c1OCC(=O)N[C@@H](Cc1ccccc1)[C@H](O)CN(CC(C)C)S(=O)(=O)c1ccc2nc(NCCc3ccccn3)sc2c1 [Compound 132] | 64.6 | – | – | – |
